Experiment: xn = mol fraction of the nth substance listed
Conditions: Liquid, Falling or rolling sphere viscometry

CCCCCCCCCCCCCC [tetradecane] + c1ccccc1
viscosity [mPa·s]
Conditions	690 kPa	5000 kPa	10000 kPa	20000 kPa	30000 kPa	40000 kPa	50000 kPa	60000 kPa
313.2 K, x2 = 0.179	1.393	1.461	1.538	1.695	1.86	2.036	2.224	2.434
313.2 K, x2 = 0.436	1.103	1.159	1.223	1.347	1.473	1.6	1.729	1.866
313.2 K, x2 = 0.602	0.905	0.955	1.011	1.118	1.225	1.329	1.432	1.535
313.2 K, x2 = 0.798	0.679	0.712	0.753	0.835	0.916	1	1.081	1.16
333.2 K, x2 = 0.179	1.045	1.098	1.157	1.273	1.389	1.515	1.657	1.846
333.2 K, x2 = 0.436	0.838	0.884	0.935	1.037	1.135	1.228	1.319	1.421
333.2 K, x2 = 0.602	0.688	0.728	0.775	0.862	0.946	1.032	1.115	1.216
333.2 K, x2 = 0.798	0.528	0.557	0.592	0.661	0.73	0.797	0.863	0.927
353.2 K, x2 = 0.179	0.819	0.855	0.904	0.996	1.08	1.168	1.278	1.391
353.2 K, x2 = 0.436	0.614	0.662	0.705	0.793	0.883	0.956	1.032	1.116
353.2 K, x2 = 0.602	0.537	0.566	0.601	0.668	0.739	0.809	0.878	0.959
353.2 K, x2 = 0.798	0.421	0.443	0.469	0.523	0.578	0.634	0.69	0.745
373.2 K, x2 = 0.179	0.596	0.635	0.678	0.765	0.849	0.926	1.001	1.07
373.2 K, x2 = 0.436	0.485	0.515	0.549	0.62	0.688	0.753	0.819	0.879
373.2 K, x2 = 0.602	0.43	0.452	0.477	0.533	0.59	0.646	0.704	0.761
373.2 K, x2 = 0.798	0.356	0.371	0.389	0.427	0.467	0.509	0.553	0.598
393.2 K, x2 = 0.179	0.466	0.495	0.531	0.601	0.67	0.738	0.804	0.868
393.2 K, x2 = 0.436	0.394	0.419	0.445	0.496	0.554	0.61	0.662	0.717
393.2 K, x2 = 0.602	0.347	0.368	0.39	0.436	0.479	0.524	0.565	0.604
393.2 K, x2 = 0.798	0.307	0.32	0.336	0.367	0.398	0.432	0.466	0.499
